Measurements taken from paper PMC5116089, “Sulfheme formation during homocysteine S-oxygenation by catalase in cancers and neurodegenerative diseases” (Nature Communications, 2016).
Like-named read-outs stand apart in the source and are kept apart here.

Key:
Bovine liver catalase = target: T1, Bovine liver catalase (Bos taurus, UniProt P00432); assay: Time course of catalase inactivation by HCys (activity test); format: biochemical; settings: CAT + 2 mM HCys, 1 mM DTPA, pH 7.4, with the additive named (DMPO 100 mM, dimedone 4 mM, SOD 40 U); n=2±s.d.
T1 construct: Bovine liver catalase was also purchased from Sigma-Aldrich; purchased Sigma-Aldrich; host or cells: bovine liver
T1 sequence (P00432 2-527 limits assumed): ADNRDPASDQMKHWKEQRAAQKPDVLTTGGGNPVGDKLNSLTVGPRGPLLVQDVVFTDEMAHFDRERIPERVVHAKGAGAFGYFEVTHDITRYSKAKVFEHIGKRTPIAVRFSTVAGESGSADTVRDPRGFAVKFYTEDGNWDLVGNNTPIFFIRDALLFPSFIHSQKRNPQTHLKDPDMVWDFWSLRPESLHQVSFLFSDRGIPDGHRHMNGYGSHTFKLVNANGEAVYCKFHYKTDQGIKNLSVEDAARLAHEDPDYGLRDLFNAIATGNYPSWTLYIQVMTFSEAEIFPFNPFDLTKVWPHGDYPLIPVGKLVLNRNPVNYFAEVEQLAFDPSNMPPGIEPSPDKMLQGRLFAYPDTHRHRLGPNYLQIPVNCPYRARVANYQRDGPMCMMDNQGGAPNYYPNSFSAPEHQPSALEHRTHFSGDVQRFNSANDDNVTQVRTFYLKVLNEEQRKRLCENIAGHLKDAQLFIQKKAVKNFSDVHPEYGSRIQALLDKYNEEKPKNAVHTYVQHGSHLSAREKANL
Procedure: (§1) CAT activity was measured on an Uvikon 941 spectrophotometer equipped with a temperature controlled water bath (±1 °C) by following the disappearance of H2O2 at 240 nm over 30–120 s at 25 °C. Catalase activity was calculated based on the rate of decomposition of hydrogen peroxide, which is proportional to the reduction of the absorbance at 240 nm. Experiments were carried out in a 3 ml quartz cuvette containing 11.7 mM H2O2 in 50 mM KPi, pH 7.4±1 mM DTPA and the reaction was initiated by adding 0.3–0.6 pmoles of CAT. The effect of biological thiols on the activity of CAT under physiological conditions was determined from a solution of CAT (30–60 nM) preincubated at 25 °C for at least 120 min as a function thiol concentration (0–40 mM for HCys and Cys, 0–100 mM for GSH) in 50 mM KPi, pH 7.4, 1 mM DTPA. Control experiments (biological thiols alone) were also performed in parallel. In each case, 10 μl of the reaction mixture (biological thiols±CAT) was added to the cuvette containing the H2O2 solution to initiate the reaction. Similarly, the effect of biological thiols on the activity of CAT under pathological conditions was determined from a solution of CAT (30–60 nM) containing a 2.124±0.386 molar excess of iron that was preincubated with various concentrations of thiols (0–1 mM) for at least 120 min at 25 °C in 50 mM KP at pH 7.4. The relative half inhibitory concentration (IC50) values were obtained by plotting the relative activity of CAT (A, in per cent) as a function of the concentration of thiol-compounds (RSH) and by fitting the data with the following four parameter logistic equation: A=Amin+(Amax−Amin)/(1+([RSH]/IC50)^n), where Amax is the maximal activity of CAT (constrained at 100%), Amin is the minimum activity achieved at saturating concentration of RSH and n is the Hillslope that characterizes the slope of the curve at its midpoint. The inactivation rate (kinact, min^−1) was extracted from the time course of the inactivation of CAT bioactivity using a fixed concentration of HCys. Accordingly, a solution of CAT (3.5–5 μM) was incubated with 2 mM L-HCys in 50 mM KPi, pH 7.4, 1 mM DTPA. Aliquots (10 μl) were taken at intervals (0–480 min), diluted 1:50 in 50 mM KPi, pH 7.4, 1 mM DTPA and assayed for CAT activity as described above. […] The effect of NaSH on the consumption of H2O2 in cell lysates was determined from a solution of cell lysates (0.5–3 mg ml^−1) incubated on ice with various concentrations of NaSH (0–200 μM). […]

HCT-15 cells = assay: H2O2 consumption in cell lysates as a function of NaSH concentration; format: biochemical, human; settings: HCT-15 cell lysate; read-out: relative IC50 (rate of H2O2 consumption)
Procedure: as §1

HCT-116 cells = assay: as above; format: biochemical, human; settings: HCT-116 cell lysate; read-out: relative IC50 (rate of H2O2 consumption)
Procedure: as §1

[1] = tested on: crypt and surface epithelial cells; assay: as above; format: biochemical, mice; settings: read-out: relative IC50 (rate of H2O2 consumption)
Procedure: CAT activity was measured on an Uvikon 941 spectrophotometer equipped with a temperature controlled water bath (±1 °C) by following the disappearance of H2O2 at 240 nm over 30–120 s at 25 °C. Catalase activity was calculated based on the rate of decomposition of hydrogen peroxide, which is proportional to the reduction of the absorbance at 240 nm. Experiments were carried out in a 3 ml quartz cuvette containing 11.7 mM H2O2 in 50 mM KPi, pH 7.4±1 mM DTPA and the reaction was initiated by adding 0.3–0.6 pmoles of CAT. The effect of biological thiols on the activity of CAT under physiological conditions was determined from a solution of CAT (30–60 nM) preincubated at 25 °C for at least 120 min as a function thiol concentration (0–40 mM for HCys and Cys, 0–100 mM for GSH) in 50 mM KPi, pH 7.4, 1 mM DTPA. Control experiments (biological thiols alone) were also performed in parallel. […] Similarly, the effect of biological thiols on the activity of CAT under pathological conditions was determined from a solution of CAT (30–60 nM) containing a 2.124±0.386 molar excess of iron that was preincubated with various concentrations of thiols (0–1 mM) for at least 120 min at 25 °C in 50 mM KP at pH 7.4. […] The effect of NaSH on the consumption of H2O2 in cell lysates was determined from a solution of cell lysates (0.5–3 mg ml^−1) incubated on ice with various concentrations of NaSH (0–200 μM). […]

Compound: NC(CCS)C(=O)O (centres unmarked) [HCys, homocysteine]
- kinact (Bovine liver catalase): 0.000483 s⁻¹

Compound: [Na+].[SH-] [NaSH]
- IC50 (HCT-15 cells): 5.8 ± 1.8 µM
- IC50 (HCT-116 cells): 1800 ± 1500 nM
- IC50 ([1]; cells isolated from DSS-treated mice): 21.6 ± 6.2 µM
- IC50 ([1]; cells isolated from untreated mice): 25.2 ± 6.7 µM
